Measurements published in patent publication US20120178766A1, “FUROPYRIMIDINEDIONE DERIVATIVES AS TRPAI MODULATORS” (priority 2009, published 2012).
pIC50: −log10 of the molar value.

Experiments:
rat TRPA1 = target: T1, rat TRPA1 (Rattus norvegicus, UniProt Q6RI86); test: 45Calcium uptake assay: inhibition of AITC induced cellular uptake of radioactive calcium, rat TRPA1 expressing CHO cells; type: cell-based; details: AITC 10 μM; for inhibition at 10 µM: 10.0 μM compound, read-out: rat TRPA1 Percentage inhibition at 10.0 μM; for inhibition at 1 µM: read-out: rat TRPA1 Percentage inhibition; for pIC50: class symbols
T1 construct: expressed in transfected cells; host or cells: CHO cells (Zeocin selection)
Protocol: (§1) Screening for TRPA1 Antagonist Using the ^45Calcium Uptake Assay:
(§2) The inhibition of TRPA1 receptor activation was measured as inhibition of allyl isothiocyanate (AITC) induced cellular uptake of radioactive calcium.
Test compounds were dissolved in 100% DMSO to prepare 10 mM stock and then diluted using plain medium with 0.1% BSA and 1.8 mM CaCl2 to get the desired concentration. The final concentration of DMSO in the reaction was 0.5% (v/v). […] Rat TRPA1 expressing CHO cells were grown in F-12 DMEM medium with 10% FBS, 1% penicillin-streptomycin solution, and 400 μg/ml of Zeocin. […] Cells were treated with the test compounds for 10 minutes followed by the addition of AITC at a final concentration of 30 μM (for human TRPA1) and/or 10 μM (for rat TRPA1) and 5 μCi/ml ^45Ca^+2 for 3 minutes. Cells were washed and lysed using a buffer containing 1% Triton X-100, 0.1% deoxycholate and 0.1% SDS. Radioactivity in the lysate was measured in a Packard TopCount after addition of liquid scintillant.
(§3) Concentration response curves were plotted as a % of maximal response obtained in the absence of test antagonist. IC50 values can be calculated from concentration response curve by nonlinear regression analysis using GraphPad PRISM software.

human TRPA1 = target: T2, human TRPA1 (Homo sapiens, UniProt O75762); test: 45Calcium uptake assay: inhibition of AITC induced cellular uptake of radioactive calcium, human TRPA1 expressing CHO cells; type: cell-based; details: AITC 30 μM; for inhibition at 1 µM: 1.0 μM compound, read-out: human TRPA1 Percentage inhibition at 1.0 μM; for inhibition at 10 µM: 10.0 μM compound, read-out: human TRPA1 Percentage inhibition at 10.0 μM; for pIC50: class symbols
T2 construct: expressed in transfected cells; host or cells: CHO cells (G-418 selection)
Description: The illustrative examples of the present invention are screened for TRPA1 activity according to a modified procedure described in (a) Tóth, A. et al. Life Sciences, 2003, 73, 487-498. (b) McNamara C, R. et al, Proc. Natl. Acad. Sci. U.S.A., 2007, 104, 13525-13530. The screening of the compounds can be carried out by other methods and procedures known to persons skilled in the art.
as §1, §2
Test compounds were dissolved in 100% DMSO to prepare 10 mM stock and then diluted using plain medium with 0.1% BSA and 1.8 mM CaCl2 to get the desired concentration. The final concentration of DMSO in the reaction was 0.5% (v/v). Human TRPA1 expressing CHO cells were grown in F-12 DMEM medium with 10% FBS, 1% penicillin-streptomycin solution, and 400 μg/ml of G-418. Rat TRPA1 expressing CHO cells were grown in F-12 DMEM medium with 10% FBS, 1% penicillin-streptomycin solution, and 400 μg/ml of Zeocin. Cells were seeded 24 h prior to the assay in 96 well plates so as to get ˜50,000 cells per well on the day of experiment. Cells were treated with the test compounds for 10 minutes followed by the addition of AITC at a final concentration of 30 μM (for human TRPA1) and/or 10 μM (for rat TRPA1) and 5 μCi/ml ^45Ca^+2 for 3 minutes. Cells were washed and lysed using a buffer containing 1% Triton X-100, 0.1% deoxycholate and 0.1% SDS. Radioactivity in the lysate was measured in a Packard TopCount after addition of liquid scintillant. (Toth et al, Life Sciences (2003) 73, 487-498; McNamara C R et al, Proceedings of the National Academy of Sciences, (2007) 104, 13525-13530).
as §3

T1 sequence (Q6RI86 whole entry): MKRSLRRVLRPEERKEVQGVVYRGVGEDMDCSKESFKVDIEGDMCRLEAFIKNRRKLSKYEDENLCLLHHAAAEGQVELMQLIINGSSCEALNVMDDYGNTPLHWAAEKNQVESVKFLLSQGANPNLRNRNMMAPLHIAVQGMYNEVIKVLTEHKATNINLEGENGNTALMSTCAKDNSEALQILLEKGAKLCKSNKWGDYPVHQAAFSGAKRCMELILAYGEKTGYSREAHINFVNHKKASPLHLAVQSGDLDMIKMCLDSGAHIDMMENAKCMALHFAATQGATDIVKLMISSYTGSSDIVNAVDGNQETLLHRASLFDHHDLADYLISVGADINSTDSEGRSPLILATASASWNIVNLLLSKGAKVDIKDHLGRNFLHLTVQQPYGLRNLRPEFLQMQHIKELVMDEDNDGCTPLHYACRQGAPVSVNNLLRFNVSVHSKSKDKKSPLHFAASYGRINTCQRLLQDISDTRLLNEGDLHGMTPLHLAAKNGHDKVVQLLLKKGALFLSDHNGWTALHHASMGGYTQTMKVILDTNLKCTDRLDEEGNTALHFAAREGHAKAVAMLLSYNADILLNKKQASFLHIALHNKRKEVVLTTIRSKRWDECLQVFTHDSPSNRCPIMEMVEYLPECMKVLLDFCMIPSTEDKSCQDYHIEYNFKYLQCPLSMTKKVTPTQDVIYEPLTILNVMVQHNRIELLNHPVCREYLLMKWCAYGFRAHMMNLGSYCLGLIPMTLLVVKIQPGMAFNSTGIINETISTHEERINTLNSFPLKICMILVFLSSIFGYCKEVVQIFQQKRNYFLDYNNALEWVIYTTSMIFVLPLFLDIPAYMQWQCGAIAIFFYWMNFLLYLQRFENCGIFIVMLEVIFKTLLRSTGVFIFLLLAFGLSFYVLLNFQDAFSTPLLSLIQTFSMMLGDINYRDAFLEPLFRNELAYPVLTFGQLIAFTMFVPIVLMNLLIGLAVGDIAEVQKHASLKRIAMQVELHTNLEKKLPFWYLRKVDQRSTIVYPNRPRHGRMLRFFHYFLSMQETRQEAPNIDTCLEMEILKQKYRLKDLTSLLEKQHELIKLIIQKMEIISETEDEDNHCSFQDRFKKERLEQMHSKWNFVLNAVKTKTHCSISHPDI
T2 sequence (O75762 whole entry): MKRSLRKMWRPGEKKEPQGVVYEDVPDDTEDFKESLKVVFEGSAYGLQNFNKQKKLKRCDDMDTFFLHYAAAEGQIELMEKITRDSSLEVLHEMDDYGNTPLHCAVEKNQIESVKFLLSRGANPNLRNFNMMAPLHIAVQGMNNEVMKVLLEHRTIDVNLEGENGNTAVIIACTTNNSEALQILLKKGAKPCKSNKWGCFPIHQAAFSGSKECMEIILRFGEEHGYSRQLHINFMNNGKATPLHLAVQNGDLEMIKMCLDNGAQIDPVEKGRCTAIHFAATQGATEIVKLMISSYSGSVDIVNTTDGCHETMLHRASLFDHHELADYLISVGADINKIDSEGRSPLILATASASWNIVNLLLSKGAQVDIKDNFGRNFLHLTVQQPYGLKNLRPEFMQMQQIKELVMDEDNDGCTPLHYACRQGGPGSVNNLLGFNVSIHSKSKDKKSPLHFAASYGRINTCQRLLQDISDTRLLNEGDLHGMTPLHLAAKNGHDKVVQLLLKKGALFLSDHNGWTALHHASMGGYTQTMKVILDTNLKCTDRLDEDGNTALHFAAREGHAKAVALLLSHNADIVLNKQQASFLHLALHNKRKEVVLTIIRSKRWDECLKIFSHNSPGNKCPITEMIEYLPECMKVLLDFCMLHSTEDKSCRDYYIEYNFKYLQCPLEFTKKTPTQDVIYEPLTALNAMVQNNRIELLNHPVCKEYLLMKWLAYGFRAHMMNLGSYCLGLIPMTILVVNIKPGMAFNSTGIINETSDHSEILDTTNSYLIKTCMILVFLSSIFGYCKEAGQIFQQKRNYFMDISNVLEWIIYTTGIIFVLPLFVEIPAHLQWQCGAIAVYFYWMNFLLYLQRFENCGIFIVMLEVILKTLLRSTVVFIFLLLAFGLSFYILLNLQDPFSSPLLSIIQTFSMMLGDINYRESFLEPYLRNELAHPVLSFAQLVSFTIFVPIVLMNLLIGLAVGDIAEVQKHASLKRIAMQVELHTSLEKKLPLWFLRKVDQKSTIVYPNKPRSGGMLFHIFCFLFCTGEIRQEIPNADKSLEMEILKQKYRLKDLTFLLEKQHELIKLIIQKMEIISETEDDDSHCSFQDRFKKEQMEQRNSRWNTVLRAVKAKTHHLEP

inhibition at 10 µM (rat TRPA1) [%] | inhibition at 1 µM (rat TRPA1) [%] | pIC50 (rat TRPA1) | inhibition at 1 µM (human TRPA1) [%] | inhibition at 10 µM (human TRPA1) [%] | pIC50 (human TRPA1) | Structure (SMILES)
95.5 | 92.6 | < 7.00 | 96.3 | 99 | > 7.30 | Cn1c(=O)c2c(CC(=O)Nc3nc(-c4ccc(OC(F)F)c(F)c4)cs3)coc2n(C)c1=O [Example 23, N1-[4-(3-Fluoro-4-difluoromethoxyphenyl)-1,3-thiazol-2-yl]-2-(1,3-dimethyl-2,4-dioxo-1,2,3,4-tetrahydrofuro[2,3-d]pyrimidin-5-yl)acetamide]
99.6 | 100 | < 7.00 | 97.4 | 99.8 | > 7.30 | Cn1c(=O)c2c(CC(=O)Nc3nc(-c4ccc(OC(F)F)c(Cl)c4)cs3)coc2n(C)c1=O [Example 24, N1-[4-(3-Chloro-4-difluoromethoxyphenyl)-1,3-thiazol-2-yl]-2-(1,3-dimethyl-2,4-dioxo-1,2,3,4-tetrahydrofuro[2,3-d]pyrimidin-5-yl)acetamide]
99.9 | 98.6 |  | 97.6 | 99.3 | > 7.30 | Cn1c(=O)c2c(CC(=O)Nc3nc(-c4ccc(OCC(C)(C)C)c(F)c4)cs3)coc2n(C)c1=O [Example 26, N1-{4-[4-(2,2-Dimethylpropoxy)-3-fluorophenyl]-1,3-thiazol-2-yl}-2-(1,3-dimethyl-2,4-dioxo-1,2,3,4-tetrahydrofuro[2,3-d]pyrimidin-5-yl)acetamide]
100 | 93.1 |  | 97.1 | 99.2 | < 7.00 | Cn1c(=O)c2c(CC(=O)Nc3nc(-c4ccc(OCC(C)(C)C)c(Cl)c4)cs3)coc2n(C)c1=O [Example 27, N1-{4-[3-Chloro-4-(2,2-dimethylpropoxy)phenyl]-1,3-thiazol-2-yl}-2-(1,3-dimethyl-2,4-dioxo-1,2,3,4-tetrahydrofuro[2,3-d]pyrimidin-5-yl)acetamide]
100 | 98.5 |  | 96.7 | 99.3 | < 7.00 | Cn1c(=O)c2c(CC(=O)Nc3nc(-c4ccc(OCC(C)(C)C)c(Br)c4)cs3)coc2n(C)c1=O [Example 28, N1-{4-[3-Bromo-4-(2,2-dimethylpropoxy)phenyl]-1,3-thiazol-2-yl}-2-(1,3-dimethyl-2,4-dioxo-1,2,3,4-tetrahydrofuro[2,3-d]pyrimidin-5-yl)acetamide]
100 | 97.1 | < 7.00 | 97.4 | 100 | > 7.30 | Cn1c(=O)c2c(CC(=O)Nc3nc(-c4ccc(OCC(F)(F)F)c(F)c4)cs3)coc2n(C)c1=O [Example 30, N1-{4-[3-Fluoro-4-(2,2,2-trifluoroethoxy)phenyl]-1,3-thiazol-2-yl}2-(1,3-dimethyl-2,4-dioxo-1,2,3,4-tetrahydrofuro[2,3-d]pyrimidin-5-yl)acetamide]
100 | 96.8 | 7.00 to 7.30 | 98.3 | 99.8 | > 7.30 | Cn1c(=O)c2c(CC(=O)Nc3nc(-c4ccc(OCC(F)(F)F)c(Cl)c4)cs3)coc2n(C)c1=O [Example 31, N1-{4-[3-Chloro-4-(2,2,2-trifluoroethoxy)phenyl]-1,3-thiazol-2-yl}2-(1,3-dimethyl-2,4-dioxo-1,2,3,4-tetrahydrofuro[2,3-d]pyrimidin-5-yl)acetamide]
100 | 85.2 | > 7.30 | 99.8 | 99.5 | > 7.30 | Cn1c(=O)c2c(CC(=O)Nc3nc(-c4ccc(OCC(F)(F)F)c(Br)c4)cs3)coc2n(C)c1=O [Example 32, N1-{4-[3-Bromo-4-(2,2,2-trifluoroethoxy)phenyl]-1,3-thiazol-2-yl}2-(1,3-dimethyl-2,4-dioxo-1,2,3,4-tetrahydrofuro[2,3-d]pyrimidin-5-yl)acetamide]
